Reference: patent US20260028326A1, “COMPOUND BASED ON ISOINDOLINE-SUBSTITUTED GLUTARIMIDE BACKBONE AND USE THEREOF” (GLUETACS THERAPEUTICS (SHANGHAI) CO., LTD., priority 2022, published 2026)

How the values were obtained:
Mino cells = assay: Tumor cell proliferation IC50 (CCK-8), Mino; conditions: Homo sapiens, 72 h, read-out: IC50 for inhibiting the proliferation of tumor cells, Mino;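 note: cell viability assessed with CCK-8 reagent after compound exposure, IC50 derived from plotted growth inhibition curves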
CCRF-CEM cells = assay: Tumor cell proliferation IC50 (CCK-8), CCRF-CEM; conditions: Homo sapiens, 96 h, read-out: IC50 for inhibiting the proliferation of tumor cells, CCRF-CEM;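 note: cell viability measured with CCK-8 reagent after compound treatment, IC50 taken from plotted growth inhibition curves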
Experimental: The tumor cells used herein were cultured in a cell culture medium listed in table A at 37° C. in an incubator with 5% CO2.
After the cells were treated with the compounds of the present disclosure for a period of time, the cell viability detection reagent was added to the culture medium for cell viability assessment according to the instructions provided with the CCK-8 kit. […] The growth inhibition of the compounds of the present disclosure on cells was plotted by Prism Graphpad software, and the IC50 values of the compounds of the present disclosure were calculated therefrom.

IKZF1 protein = IKZF1 protein (Homo sapiens (Human), UniProt Q13422+Q96SW2); assay: Western-blot assay of substrate protein degradation in hPBMC, IKZF1; assay type: cell-based; conditions: for residual substrate protein level, IKZF1: hPBMC cells, compound 500 nM, 24 hours, Western blot; for concentration at which significant degradation effects on IKZF1 protein are exhibited (FIG. 1): hPBMC, 24 h, serially diluted 0.03-1000 nM
IKZF1 protein, sequence (Q13422 whole entry): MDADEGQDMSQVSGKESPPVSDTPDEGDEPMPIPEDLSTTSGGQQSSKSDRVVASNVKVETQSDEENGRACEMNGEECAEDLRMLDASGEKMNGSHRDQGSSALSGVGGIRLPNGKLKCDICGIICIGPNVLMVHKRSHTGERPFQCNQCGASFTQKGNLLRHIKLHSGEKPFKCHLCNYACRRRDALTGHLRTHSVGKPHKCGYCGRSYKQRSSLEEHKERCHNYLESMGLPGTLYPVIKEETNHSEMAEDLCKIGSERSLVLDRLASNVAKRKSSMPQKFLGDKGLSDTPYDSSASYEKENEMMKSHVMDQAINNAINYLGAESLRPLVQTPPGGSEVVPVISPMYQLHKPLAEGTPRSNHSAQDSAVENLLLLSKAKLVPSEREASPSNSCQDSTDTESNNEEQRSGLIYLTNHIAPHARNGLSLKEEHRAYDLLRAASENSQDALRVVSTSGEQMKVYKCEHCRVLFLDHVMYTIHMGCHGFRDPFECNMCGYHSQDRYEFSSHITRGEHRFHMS
IKZF1 protein, sequence (Q96SW2 whole entry): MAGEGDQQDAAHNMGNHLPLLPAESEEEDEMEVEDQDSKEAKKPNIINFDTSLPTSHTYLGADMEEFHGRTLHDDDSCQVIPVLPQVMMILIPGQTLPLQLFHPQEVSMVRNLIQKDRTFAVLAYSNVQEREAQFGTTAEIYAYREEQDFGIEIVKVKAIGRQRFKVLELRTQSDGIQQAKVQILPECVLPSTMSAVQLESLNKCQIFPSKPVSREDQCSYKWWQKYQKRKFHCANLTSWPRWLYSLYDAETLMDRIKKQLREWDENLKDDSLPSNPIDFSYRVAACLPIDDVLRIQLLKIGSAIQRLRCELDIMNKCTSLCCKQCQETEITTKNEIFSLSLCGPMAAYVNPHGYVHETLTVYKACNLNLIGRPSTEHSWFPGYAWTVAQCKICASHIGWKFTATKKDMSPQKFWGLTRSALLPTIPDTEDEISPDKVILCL
IKZF1 protein, sequence (Q16531 whole entry partner): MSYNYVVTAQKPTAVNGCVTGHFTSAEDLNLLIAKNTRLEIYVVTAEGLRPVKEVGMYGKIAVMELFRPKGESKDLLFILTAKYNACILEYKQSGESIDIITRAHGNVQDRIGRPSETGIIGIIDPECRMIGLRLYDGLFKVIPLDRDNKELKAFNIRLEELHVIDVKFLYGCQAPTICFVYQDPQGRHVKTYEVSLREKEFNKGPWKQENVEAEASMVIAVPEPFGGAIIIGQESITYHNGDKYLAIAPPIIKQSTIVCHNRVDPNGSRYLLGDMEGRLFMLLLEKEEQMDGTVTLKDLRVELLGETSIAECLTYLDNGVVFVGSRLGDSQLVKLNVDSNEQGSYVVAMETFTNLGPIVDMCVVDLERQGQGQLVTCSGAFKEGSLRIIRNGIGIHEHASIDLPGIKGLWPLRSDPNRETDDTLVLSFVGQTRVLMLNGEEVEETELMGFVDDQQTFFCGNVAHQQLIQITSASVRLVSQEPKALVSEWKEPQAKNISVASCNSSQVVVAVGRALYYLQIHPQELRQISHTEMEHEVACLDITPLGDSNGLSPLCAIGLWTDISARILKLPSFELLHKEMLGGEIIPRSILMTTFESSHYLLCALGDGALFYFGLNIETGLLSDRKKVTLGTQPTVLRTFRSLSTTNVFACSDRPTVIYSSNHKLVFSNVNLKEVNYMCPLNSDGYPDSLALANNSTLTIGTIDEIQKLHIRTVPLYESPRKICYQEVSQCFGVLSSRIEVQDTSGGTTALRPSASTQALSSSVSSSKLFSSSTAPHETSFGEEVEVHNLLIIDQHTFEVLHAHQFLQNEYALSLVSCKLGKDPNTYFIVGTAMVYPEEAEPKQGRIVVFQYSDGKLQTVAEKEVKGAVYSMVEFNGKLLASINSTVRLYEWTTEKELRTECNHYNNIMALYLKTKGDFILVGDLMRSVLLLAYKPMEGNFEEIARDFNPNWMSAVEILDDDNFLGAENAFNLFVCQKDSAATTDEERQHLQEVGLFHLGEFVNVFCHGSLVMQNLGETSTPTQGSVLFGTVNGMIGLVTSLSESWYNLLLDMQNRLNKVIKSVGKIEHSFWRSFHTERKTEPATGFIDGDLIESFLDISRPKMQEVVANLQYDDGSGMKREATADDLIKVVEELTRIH

GSPT1 protein = GSPT1 protein (Homo sapiens (Human), UniProt P15170+Q96SW2); assay: Western-blot assay of substrate protein degradation in hPBMC, GSPT1; assay type: cell-based; conditions: for residual substrate protein level, GSPT1: hPBMC cells, compound 500 nM, 24 hours, Western blot; for concentration at which significant degradation effects on GSPT1 protein are exhibited (FIG. 1): hPBMC, 24 h, serially diluted 0.03-1000 nM
GSPT1 protein, sequence (P15170 whole entry): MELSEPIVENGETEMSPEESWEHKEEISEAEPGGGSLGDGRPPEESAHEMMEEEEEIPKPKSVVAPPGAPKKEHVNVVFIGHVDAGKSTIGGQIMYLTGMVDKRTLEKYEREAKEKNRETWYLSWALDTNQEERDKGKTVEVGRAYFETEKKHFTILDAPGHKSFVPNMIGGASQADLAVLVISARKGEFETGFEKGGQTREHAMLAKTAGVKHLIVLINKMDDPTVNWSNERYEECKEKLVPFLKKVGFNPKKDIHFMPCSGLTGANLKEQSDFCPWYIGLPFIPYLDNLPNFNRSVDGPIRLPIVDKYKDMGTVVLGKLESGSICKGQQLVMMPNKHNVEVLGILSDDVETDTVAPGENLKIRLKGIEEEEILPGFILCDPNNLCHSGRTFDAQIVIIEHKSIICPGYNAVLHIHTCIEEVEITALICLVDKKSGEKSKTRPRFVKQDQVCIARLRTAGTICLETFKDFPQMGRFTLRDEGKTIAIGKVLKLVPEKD
GSPT1 protein, sequence (Q96SW2 whole entry): as the sequence (Q96SW2 whole entry) above
GSPT1 protein, sequence (Q16531 whole entry partner): as the sequence (Q16531 whole entry partner) above

MM.1S cells = assay: Tumor cell proliferation IC50 (CCK-8), MM.1S; conditions: Homo sapiens, MM1.S, 72 h, read-out: IC50 for inhibiting the proliferation of tumor cells, MM.1S;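 note: viability of cultured cells read by CCK-8 reagent after compound exposure, growth inhibition curves fitted to derive IC50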
IKZF3 protein = IKZF3 protein (Homo sapiens (Human), UniProt Q96SW2+Q9UKT9); assay: Western-blot assay of substrate protein degradation in hPBMC, IKZF3; assay type: cell-based; conditions: for residual substrate protein level, IKZF3: hPBMC cells, compound 500 nM, 24 hours, Western blot; for concentration at which significant degradation effects on IKZF3 protein are exhibited (FIG. 1): hPBMC, 24 h, serially diluted 0.03-1000 nM
IKZF3 protein, sequence (Q9UKT9 whole entry): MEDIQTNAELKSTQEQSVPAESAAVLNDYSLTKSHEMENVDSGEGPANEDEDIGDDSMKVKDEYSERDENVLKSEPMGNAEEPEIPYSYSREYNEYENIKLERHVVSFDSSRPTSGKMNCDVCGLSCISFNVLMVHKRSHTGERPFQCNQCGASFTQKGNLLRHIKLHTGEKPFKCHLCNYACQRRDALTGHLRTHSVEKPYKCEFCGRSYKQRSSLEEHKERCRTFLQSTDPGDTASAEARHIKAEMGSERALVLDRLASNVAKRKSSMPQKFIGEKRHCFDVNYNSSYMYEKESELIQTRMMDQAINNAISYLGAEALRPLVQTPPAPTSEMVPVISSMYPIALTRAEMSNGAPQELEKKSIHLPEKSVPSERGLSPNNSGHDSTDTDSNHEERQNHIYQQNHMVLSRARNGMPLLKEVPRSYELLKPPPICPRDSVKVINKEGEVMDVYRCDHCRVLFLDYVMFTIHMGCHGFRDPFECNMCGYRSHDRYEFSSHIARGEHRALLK
IKZF3 protein, sequence (Q96SW2 whole entry): as the sequence (Q96SW2 whole entry) above
IKZF3 protein, sequence (Q16531 whole entry partner): as the sequence (Q16531 whole entry partner) above

[1] = biological target: human Cereblon WT GST-tagged protein (Homo sapiens (Human), UniProt Q96SW2); assay: CRBN-binding affinity, HTRF (CEREBLON BINDING kit)
human Cereblon WT GST-tagged protein, sequence (Q96SW2 whole entry): as the sequence (Q96SW2 whole entry) above
Procedure, shortened: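 GST-tagged human WT Cereblon incubated with compound, then Thalidomide-Re tracer and anti-GST Eu antibody added. Displacement read by HTRF, reported as CRBN binding inhibition rate against blank control wells without protein.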

SMILES | IC50 (Mino cells) [µM] | IC50 (CCRF-CEM cells) [µM] | IC50 (MM.1S cells) [µM] | IC50 [1] [µM] | concentration at which significant degradation effects on IKZF1 protein are exhibited (FIG. 1) (IKZF1 protein) [nM] | concentration at which significant degradation effects on GSPT1 protein are exhibited (FIG. 1) (GSPT1 protein) [nM] | concentration at which significant degradation effects on IKZF3 protein are exhibited (FIG. 1) (IKZF3 protein) [nM] | residual substrate protein level, IKZF1 (IKZF1 protein) | residual substrate protein level, GSPT1 (GSPT1 protein) | residual substrate protein level, IKZF3 (IKZF3 protein)
Cc1ccc(C2=C(CN3CCN(Cc4ccc5c(c4)C(=O)N(C4CCC(=O)NC4=O)C5=O)CC3)CCC(C)(C)C2)cc1 (stereo not drawn) [GT-05793, 2-(2,6-dioxopiperidin-3-yl)-5-((4-((4′,5,5-trimethyl-3,4,5,6-tetrahydro-[1,1′-biphenyl]-2-yl)methyl)piperazin-1-yl)methyl)isoindoline-1,3-dione] | 0.1 to 0.5 | 0.1 to 0.5 | 0.1 to 0.5 |  |  |  |  | B (B represents a residual substrate protein level of >50%) | A (A represents a residual substrate protein level of <50%) | A (A represents a residual substrate protein level of <50%)
CC1(C)CCC(CN2CCN(Cc3cc4c(cc3F)C(=O)N(C3CCC(=O)NC3=O)C4)C(C(F)(F)F)C2)=C(c2ccc(Cl)cc2)C1 (stereo not drawn) [GT-06101, 3-(5-((4-((4′-chloro-5,5-dimethyl-3,4,5,6-tetrahydro-[1,1′-biphenyl]-2-yl)methyl)-2-(trifluoromethyl)piperazin-1-yl)methyl)-6-fluoro-1-oxoisoindolin-2-yl)piperidine-2,6-dione] |  | 0.5 to 1 |  |  |  |  |  |  |  | 
CC1(C)CCC(C(=O)N2CCN(Cc3cc4c(cc3F)C(=O)N(C3CCC(=O)NC3=O)C4)CC2)=C(c2ccc(Cl)cc2)C1 (stereo not drawn) [GT-05526, 3-(5-((4-(4′-chloro-5,5-dimethyl-3,4,5,6-tetrahydro-[1,1′-biphenyl]-2-carbonyl)piperazin-1-yl)methyl)-6-fluoro-1-oxoisoindolin-2-yl)piperidine-2,6-dione] |  | 0.5 to 1 |  | 0.69 |  |  |  | B (B represents a residual substrate protein level of >50%) | A (A represents a residual substrate protein level of <50%) | B (B represents a residual substrate protein level of >50%)
O=C1CCC(N2Cc3cc(CN4CC5CCC(C4)N5C(=O)c4ccccc4-c4ccc(Cl)cc4)ccc3C2=O)C(=O)N1 (stereo not drawn) [GT-05542, 3-(5-((8-(4′-chloro-[1,1′-biphenyl]-2-carbonyl)-3,8-diazabicyclo[3.2.1]octan-3-yl)methyl)-1-oxoisoindolin-2-yl)piperidine-2,6-dione] | < 0.005 | 0.01 to 0.05 | 0.01 to 0.05 | 0.44 |  |  |  |  |  | 
CC1(C)CCC(C(=O)N2CC3(CN(Cc4ccc5c(c4)CN(C4CCC(=O)NC4=O)C5=O)C3)C2)=C(c2ccc(Cl)cc2)C1 (stereo not drawn) [GT-05681, 3-(5-((6-(4′-chloro-5,5-dimethyl-3,4,5,6-tetrahydro-[1,1′-biphenyl]-2-carbonyl)-2,6-diazaspiro[3.3]heptan-2-yl)methyl)-1-oxoisoindolin-2-yl)piperidine-2,6-dione] | 0.1 to 0.5 | 0.1 to 0.5 | 0.05 to 0.1 | 0.46 |  |  |  | B (B represents a residual substrate protein level of >50%) | A (A represents a residual substrate protein level of <50%) | A (A represents a residual substrate protein level of <50%)
O=C1CCC(N2Cc3cc(C(=O)N4CCC(Nc5ccccc5-c5ccc(Cl)cc5)CC4)ccc3C2=O)C(=O)N1 (stereo not drawn) [GT-05646, 3-(5-(4-((4′-chloro-[1,1′-biphenyl]-2-yl)amino)piperidine-1-carbonyl)-1-oxoisoindolin-2-yl)piperidine-2,6-dione] |  | 0.1 to 0.5 | 0.1 to 0.5 | 1.02 |  |  |  | B (B represents a residual substrate protein level of >50%) | A (A represents a residual substrate protein level of <50%) | B (B represents a residual substrate protein level of >50%)
CC1(C)CCC(CN2CCN(Cc3ccc4c(c3)C(=O)N(C3CCC(=O)NC3=O)C4=O)CC2)=C(c2ccc(Cl)cc2)C1 (stereo not drawn) [GT-05364, 5-((4-((4′-chloro-5,5-dimethyl-3,4,5,6-tetrahydro-[1,1′-biphenyl]-2-yl)methyl)piperazin-1-yl)methyl)-2-(2,6-dioxopiperidin-3-yl)isoindoline-1,3-dione] |  | 0.1 to 0.5 | 0.1 to 0.5 |  |  |  |  | A (A represents a residual substrate protein level of <50%) | A (A represents a residual substrate protein level of <50%) | A (A represents a residual substrate protein level of <50%)

Further lines, with some results ahead:

IC50 (Mino cells) [µM] | IC50 (CCRF-CEM cells) [µM] | IC50 (MM.1S cells) [µM] | IC50 [1] [µM] | concentration at which significant degradation effects on IKZF1 protein are exhibited (FIG. 1) (IKZF1 protein) [nM] | concentration at which significant degradation effects on GSPT1 protein are exhibited (FIG. 1) (GSPT1 protein) [nM] | concentration at which significant degradation effects on IKZF3 protein are exhibited (FIG. 1) (IKZF3 protein) [nM] | SMILES | residual substrate protein level, IKZF1 (IKZF1 protein) | residual substrate protein level, GSPT1 (GSPT1 protein) | residual substrate protein level, IKZF3 (IKZF3 protein)
0.01 to 0.05 | 0.05 to 0.1 | 0.01 to 0.05 | 0.57 |  |  |  | CC1(C)CCC(CN2CCN(Cc3ccc4c(c3)CN(C3CCC(=O)NC3=O)C4=O)CC2)=C(c2ccco2)C1 (stereo not drawn) [GT-05790, 3-(5-((4-((2-(furan-2-yl)-4,4-dimethylcyclohex-1-en-1-yl)methyl)piperazin-1-yl)methyl)-1-oxoisoindolin-2-yl)piperidine-2,6-dione] |  |  | 
0.1 to 0.5 | 0.1 to 0.5 | 0.01 to 0.05 | 0.59 | < 3 | < 3 | < 3 | O=C1CCC(N2Cc3cc(CN4CC5(CCN(C(=O)c6ccccc6-c6ccc(Cl)cc6)CC5)C4)ccc3C2=O)C(=O)N1 (stereo not drawn) [GT-05620, 3-(5-((7-(4′-chloro-[1,1′-biphenyl]-2-carbonyl)-2,7-diazaspiro[3.5]nonan-2-yl)methyl)-1-oxoisoindolin-2-yl)piperidine-2,6-dione] |  |  | 
0.01 to 0.05 | 0.1 to 0.5 | 0.05 to 0.1 | 0.54 |  |  |  | O=C1CCC(N2Cc3cc(CN4CCN(Cc5ccccc5-c5cncs5)CC4)ccc3C2=O)C(=O)N1 (stereo not drawn) [GT-05684, 3-(1-oxo-5-((4-(2-(thiazol-5-yl)benzyl)piperazin-1-yl)methyl)isoindolin-2-yl)piperidine-2,6-dione] | A (A represents a residual substrate protein level of <50%) | A (A represents a residual substrate protein level of <50%) | A (A represents a residual substrate protein level of <50%)
 | 0.05 to 0.1 | 0.1 to 0.5 | 0.49 |  |  |  | O=C1CCC(N2Cc3cc(C(=O)N4CC5CN(Cc6ccccc6-c6ccc(Cl)cc6)CC5C4)ccc3C2=O)C(=O)N1 (stereo not drawn) [GT-05642, 3-(5-(5-((4′-chloro-[1,1′-biphenyl]-2-yl)methyl)octahydropyrrolo[3,4-c]pyrrole-2-carbonyl)-1-oxoisoindolin-2-yl)piperidine-2,6-dione] | B (B represents a residual substrate protein level of >50%) | A (A represents a residual substrate protein level of <50%) | B (B represents a residual substrate protein level of >50%)
 | 0.1 to 0.5 |  | 0.49 |  |  |  | O=C1CCC(N2Cc3cc(CN4CCN(Cc5ccccc5-c5ccc(Cl)cc5)CC4C(F)(F)F)ccc3C2=O)C(=O)N1 (stereo not drawn) [GT-05711, 3-(5-((4-((4′-chloro-[1,1′-biphenyl]-2-yl)methyl)-2-(trifluoromethyl)piperazin-1-yl)methyl)-1-oxoisoindolin-2-yl)piperidine-2,6-dione] |  |  | 
0.01 to 0.05 |  | 0.1 to 0.5 | 0.39 | < 3 | < 3 | < 3 | O=C1CCC(N2Cc3cc(CN4CCN(Cc5ccc(-c6cccs6)cc5)CC4)ccc3C2=O)C(=O)N1 (stereo not drawn) [GT-05640, 3-(1-oxo-5-((4-(4-(thiophen-2-yl)benzyl)piperazin-1-yl)methyl)isoindolin-2-yl)piperidine-2,6-dione] | A (A represents a residual substrate protein level of <50%) | B (B represents a residual substrate protein level of >50%) | A (A represents a residual substrate protein level of <50%)
0.1 to 0.5 |  | 0.1 to 0.5 | 0.99 |  |  |  | O=C1CCC(N2Cc3cc(CN4CCN(Cc5ccccc5-c5cnco5)CC4)ccc3C2=O)C(=O)N1 (stereo not drawn) [GT-05849, 3-(5-((4-(2-(oxazol-5-yl)benzyl)piperazin-1-yl)methyl)-1-oxoisoindolin-2-yl)piperidine-2,6-dione] | A (A represents a residual substrate protein level of <50%) | A (A represents a residual substrate protein level of <50%) | A (A represents a residual substrate protein level of <50%)
0.1 to 0.5 |  | 0.1 to 0.5 | 0.68 |  |  |  | O=C1CCC(N2Cc3c(ccc(CN4CCN(C(=O)c5ccccc5-c5ccc(Cl)cc5)CC4)c3F)C2=O)C(=O)N1 (stereo not drawn) [GT-05649, 3-(5-((4-(4′-chloro-[1,1′-biphenyl]-2-carbonyl)piperazin-1-yl)methyl)-4-fluoro-1-oxoisoindolin-2-yl)piperidine-2,6-dione] | B (B represents a residual substrate protein level of >50%) | B (B represents a residual substrate protein level of >50%) | A (A represents a residual substrate protein level of <50%)
